Test results: patent US12473249B2, “Aromatic compounds and pharmaceutical uses thereof” (BASF AS, priority 2018, dated 2025)

Assays:
Assay type in all cases: in vivo, mouse
ob/ob AMLN mice = assay: Glycemic control (oral glucose tolerance test, fasting glucose and insulin) in ob/ob AMLN mice; conditions: 0.3 mmol/kg bw day
Method: (§1) ob/ob mice are consistently fibrosis (liver) prone when cholesterol (2%) and 40% fat (containing 18% trans-fatty acids) and 20% fructose are added to a high-caloric diet (i.e., AMLN diet). ob/ob mice on AMLN diet (termed ‘ob/ob AMLN mice’) develop steatohepatitis and fibrosis within a shorter timeframe (<12 weeks) compared with wild-type C57BL/6 mice (AMLN mice) fed the same diet. ob/ob AMLN mice provide an obese diet-induced model of NASH that also allows the study of effects on glycemic control.
Thirty male ob/ob mice (5 weeks old) were fed the AMLN diet for 15 weeks then randomised into 3 groups of 10 mice/group to receive Compound B or Compound A (both at 0.3 mmol/kg bw day) or no treatment (vehicle) for a further 4 weeks. Assessment of the hepatic expression of key genes regulating plasma lipid concentrations (LDLr), hepatic fibrosis (collA1), bile acid transport/re-uptake (Slc51b and Slc10a2) and inflammation (CD68) was made via RNA sequencing at 4 weeks. […] An additional group of mice (n=5) were also treated with a PPAR-γ agonist (pioglitazone, 30 mg/kg bw day) was also included to compare effects upon bodyweight.

[1] = test system: hepatic expression of key genes; assay: Hepatic target gene expression via RNA sequencing in ob/ob AMLN mice; conditions: 0.3 mmol/kg bw day, 4 weeks treatment
Method: as §1
Thirty male ob/ob mice (5 weeks old) were fed the AMLN diet for 15 weeks then randomised into 3 groups of 10 mice/group to receive Compound B or Compound A (both at 0.3 mmol/kg bw day) or no treatment (vehicle) for a further 4 weeks. Assessment of the hepatic expression of key genes regulating plasma lipid concentrations (LDLr), hepatic fibrosis (collA1), bile acid transport/re-uptake (Slc51b and Slc10a2) and inflammation (CD68) was made via RNA sequencing at 4 weeks. To assess the effects of Compound B and Compound A on glycemic control, an oral glucose tolerance test (OGTT) was also performed at 3 weeks. An additional group of mice (n=5) were also treated with a PPAR-γ agonist (pioglitazone, 30 mg/kg bw day) was also included to compare effects upon bodyweight.

C57BL/6 mice [2] = assay: Hepatic steatosis in oral PN diet fed C57BL/6 mice, initial experiment (Oil Red O); conditions: 19 days, 0.3 mmol/kg bw day in MCT by orogastric gavage
From the text: Male C57BL/6 mice, 6 to 8 weeks old at initiation of the experiments, were used for all experimental groups. Mice were fed either an ad libitum diet of standard rodent chow (calorie composition: 26% protein, 14% fat, 60% carbohydrates) and water or a parenteral nutrition (PN) solution that mimics the PN diet used in neonatal intensive care units. The PN solution was a fat-free, high-carbohydrate liquid diet (20% dextrose, 2% essential and nonessential amino acids, 0.2% pediatric trace elements, 0.5% pediatric multivitamins, 30 mEq of sodium, 20 mEq of potassium, 15 mEq of calcium (as calcium gluconate), 10 mEq of magnesium, 10 mEq of phosphate, 5 mEq of acetate, and 30 mEq of chloride per liter) administered as a single 50 mL bottle per cage which mice consumed ad libitum. […] Prince et al., JPEN J Parenter Enteral Nutr., 2014; 38(5): 608-616.
In the initial experiment, only Compound A was tested. The results of this experiment are described in Example 14.
Male C57BL/6 mice, 6 weeks old at initiation of experiments, were divided into three groups (10 mice per group). One group was fed an ad libitum diet of standard rodent chow and water. The group fed standard rodent chow received no additional treatments during the experimental period and served as a negative control group. The two other groups were fed the above-described PN diet. […]

C57BL/6 mice [3] = assay: Hepatic steatosis in PN-fed C57BL/6 mice intravenously administered saline, Intralipid or Omegaven
Method: Male C57BL/6 mice, 6 to 8 weeks old at initiation of the experiments, were used for all experiments. One group was fed an ad libitum diet of standard rodent chow and water. Six other groups (10 mice per group) were fed a parenteral nutrition (PN) solution ab libitum as described above.
The PN-fed groups received tail vein injections every other day of saline, Omegaven® dosed at 2.4 g/kg/day, or Intralipid® (commercial soybean oil lipid emulsion) dosed at 2.4 g/kg/day and were treated with orogastric gavage administration (every other day) of either MCT or Compound A dosed at 0.6 mmol/kg bw. Intravenous saline was isovolumetric to Intralipid® groups. MCT orogastric gavage was isovolumetric to Compound A treatment (200 μl). The 6 experimental PN diet groups are listed below: • (1) Saline (intravenous)+PN+MCT (gavage) • (2) Intralipid® (intravenous)+PN+MCT (gavage) • (3) Omegaven® (intravenous)+PN+MCT (gavage) • (4) Saline (intravenous)+PN+Compound A (gavage) • (5) Intralipid® (intravenous)+PN+Compound A (gavage) • (6) Omegaven® (intravenous)+PN+Compound A (gavage)

[4] = PN diet, 19 days, 0.6 mmol/kg bw by gavage, FIGS. 20-21

liver architecture (C57BL/6 mice [2]; oral PN diet): Normal liver architecture
normalized body mass vs any other experimental group (C57BL/6 mice [3]; [4]): not significantly different
normalized kidney mass vs any other experimental group (C57BL/6 mice [3]; [4]): not significantly different
normalized liver mass vs any other experimental group (C57BL/6 mice [3]; [4]): not significantly different
normalized spleen mass vs any other experimental group (C57BL/6 mice [3]; [4]): not significantly different
SMILES: CCCCCOc1cccc(C(=O)O)c1C [Compound A, 2-methyl-3-(pentyloxy)benzoic acid]
total plasma glucose (area-under-the-curve from 0-240 mins) versus vehicle in response to an oral glucose load (ob/ob AMLN mice; after 3 weeks treatment, FIG. 1): significantly reduce
plasma glucose at 30- and 60-mins versus vehicle in response to an oral glucose load (ob/ob AMLN mice; after 3 weeks treatment, FIG. 2): significantly reduce
fasting plasma insulin versus vehicle (ob/ob AMLN mice; after 4 weeks treatment, FIG. 3): reduce
fasting plasma glucose versus vehicle (ob/ob AMLN mice; after 4 weeks treatment, FIG. 4): significantly reduce
hepatic expression of Coll al (collagen1a1) versus vehicle ([1]; FIG. 5): significantly reduce
hepatic expression of Slc10a2 versus vehicle ([1]; FIG. 6): significantly decreases
hepatic expression of Slc51b versus vehicle ([1]; FIG. 7): significantly decreases
hepatic expression of ABCC2 versus vehicle ([1]; FIG. 8): significantly increases
hepatic expression of CYP7A1 ([1]; FIG. 9): reduces
hepatic expression of CD68 versus vehicle ([1]; FIG. 10): significantly decreases
expression of hepatic LDLr versus vehicle ([1]; FIG. 12): significantly increase
development of steatosis induced by an oral PN diet (Red Oil O stain in isolated liver sections) (C57BL/6 mice [2]; FIG. 13): prevented the development of steatosis
development of steatosis induced by an oral PN diet (H&E stain in isolated liver sections) (C57BL/6 mice [3]; PN diet with intravenous saline, Intralipid or Omegaven, 0.6 mmol/kg bw by gavage every other day, FIGS. 22-25): prevented the development of steatosis
development of steatosis (Oil Red O stain in isolated liver sections) (C57BL/6 mice [3]; PN diet with intravenous saline, Intralipid or Omegaven, 0.6 mmol/kg bw by gavage every other day, FIGS. 26-29): prevented the development of steatosis
quantification of lipid accumulation (Oil Red O) as compared with the chow-fed control (C57BL/6 mice [3]; PN diet with intravenous saline, Intralipid or Omegaven, 0.6 mmol/kg bw by gavage, FIG. 30): prevented the development of steatosis
